# Source: patent US6703216B2, “Methods, compositions and apparatuses for detection of gamma-hydroxybutyric acid (GHB)” (priority 2002, dated 2004)
# Like-named read-outs stand apart in the source and are kept apart here.
# Experiments:
# [1] = target: T1, GHB-DH fusion protein (Cupriavidus necator, UniProt Q59104); type: biochemical, Ralstonia eutropha; design: made in house; host or cells: E. coli pLysS cells (Novagene), vector pGEX-2T/GHB-DH
# Experimental: A number of potential stabilizing agents were tested for their suitability in stabilizing a formulation of a GST fusion protein comprising the R. eutropha SSA reductase. Enzymatic activity of the purified fusion protein was studied after storage in different formulations for 21 days at 4° C. […] A range of concentrations of ammonium sulfate and glycerol were tested. […] GHB-DH may contain bound iron and copper ions (Wolf, 1995), which chelating agents can sequester and thereby denature and/or inactivate the oxidoreductase.
# Enzymatic assay for GHB based on formation of NADH. GHB-DH activity was assayed at 23° C. in 1 ml of buffer (97 mM 2-amino-2-methyl-1,3-propanediol (AMPD) adjusted to pH 8.5 with HCl) containing 14 μg purified fusion protein and 1 mM NAD^+ in a cuvette of 1 cm path length at 23° C. (Valentin, 1995). Reaction was initiated by the addition of GHB to 20 mM, and formation of NADH was monitored by the increase in absorbance at 334 nm (FIG. 4A).
# Stability of fusion protein. The GHB-DH enzymatic activity of R. eutropha GHB-DH fusion protein was studied after storage for 21 days at 4° C. under various conditions (FIG. 5). Fourteen μg of protein was assayed using the method described in Example 4. Test enzyme solutions included the crude lysate, purified fusion protein at 7 mg/ml in 50 mM NaCl and 30 mM MOPS adjusted to pH 7.4 with NaOH, and purified fusion protein at 7 mg/ml in the same buffer also containing potential stabilizing agents.
# [2] = target: purified GHB-DH fusion protein (Cupriavidus necator, UniProt Q59104); settings: for weaker affinity for GHB-DH than GHB: ethanol relative to GHB
# [3] = 150-pound person, cited from earlier work
# [4] = target: T1, GHB-DH fusion protein; experiment: Detection of GHB in human urine on filter paper
# [5] = target: T2, R. eutropha GHB-DH (Cupriavidus necator, UniProt Q59104); experiment: Economical dipstick assay for GHB in alcoholic beverages after evaporation
# [6] = target: T2, R. eutropha GHB-DH; type: biochemical, Ralstonia eutropha; design: made in house; host or cells: E. coli pLysS cells (Novagene), vector pGEX-2T/GHB-DH; settings: 20 mM GHB in the same concentrations of ethanol
# [7] = target: T1, GHB-DH fusion protein; type: biochemical, Ralstonia eutropha; design: made in house; host or cells: E. coli pLysS cells (Novagene), vector pGEX-2T/GHB-DH; remark: listed apart in the source
# [8] = system: O=C(O)CCCO; experiment: purified protein, by the assay type; settings: other: GHB as substrate, 5 μg fusion protein, pH 8.5, 23° C.
# [9] = purified fusion protein 7 mg/ml, 21 days at 4° C.
molecule,measurement,setting,value
reduced glutathione,effect of agent on enzyme activity during storage,[1]; [9],drastically diminished enzyme activity
same,effect of agent on enzyme activity during storage,"[1]; purified fusion protein 7 mg/ml, 21 days at 4° C., listed as reduced GSH",nearly totally inactivated enzyme activity
N.N.O=S(=O)(O)O [ammonium sulfate],effect of agent on enzyme activity during storage,[1]; [9],somewhat deleterious
same,enzyme activity lost during storage,"[1]; range of concentrations of ammonium sulfate, 21 days at 4° C.",≥ 50%
"O=C(O)CN(CCN(CC(=O)O)CC(=O)O)CC(=O)O [EDTA, ethylene diamine tetraacetic acid]",effect of agent on enzyme activity during storage,[1]; [9],nearly totally inactivated enzyme activity
same,effect of agent on enzyme activity during storage,"[1]; purified fusion protein 7 mg/ml, 21 days at 4° C., listed as ethylene diamine tetraacetic acid",drastically diminished enzyme activity
"O[C@H](CS)[C@H](O)CS (racemic) [DTT, dithiothreitol]",effect of agent on enzyme activity during storage,[1]; [9],nearly completely inactivated enzyme activity
same,effect of agent on enzyme activity during storage,"[1]; purified fusion protein 7 mg/ml, 21 days at 4° C., listed as dithiothreitol",drastically diminished enzyme activity
oxidized glutathione,effect of agent on enzyme activity during storage,[1]; [9],drastically diminished enzyme activity
same,effect of agent on enzyme activity during storage,"[1]; purified fusion protein 7 mg/ml, 21 days at 4° C., listed as oxidized GSH",nearly totally inactivated enzyme activity
OCC(O)CO [glycerol],effect of agent on enzyme activity during storage,"[1]; 5-20% glycerol, 4° C.",retained high degrees of enzyme activity
same,effect of agent on enzyme activity during storage,"[1]; 10% glycerol, 21 days, 4° C.",greatest retention
same,effect of agent on enzyme activity during storage,[1]; 50% glycerol at 4° C.,deleterious
"O=C(O)CCCO [GHB, 4-hydroxy-butanoic acid]",Vmax,[2]; GHB as substrate (FIG. 6A),0.049±0.001 A/min/μg
same,Vmax,"[2]; GHB as substrate, 5 μg fusion protein",0.049±0.001 Absorbance/min/μg fusion protein
same,effect in a person,[3]; 1-gram dose,low degree of effect
same,effect in a person,[3]; 2.5-gram dose,coma
same,color produced,[4]; 0.1 mM GHB in human urine,slight but definite purple
same,color produced,[4]; 0.3 mM GHB in human urine,substantial purple
same,GHB concentration in urine producing color,"[4]; human urine, dried or not dried, 5 minutes",≤ 0.1 mM
same,color developed,"[5]; 20 mM GHB in 25 alcoholic beverages, 2 minutes",intense purple color
same,GHB concentration detected in alcoholic beverages,"[5]; evaporated sample, 2 minutes reaction at 23° C.",≤ 1 mM
same,color produced on paper,[6],intense purple
same,GHB concentration readily detected,"[7]; conjugated filters, assay buffer, 23° C.",≤ 2 mM
purified GHB-DH fusion protein (Cupriavidus necator),Km,[8],2190 ± 130 µM
"OCCS [BME, 2-mercaptoethanol]",effect of agent on enzyme activity during storage,[1]; [9],nearly completely inactivated enzyme activity
same,effect of agent on enzyme activity during storage,"[1]; purified fusion protein 7 mg/ml, 21 days at 4° C., listed as beta-mercaptoethanol",drastically diminished enzyme activity
"CCO [Ethanol, ethanol]",weaker affinity for GHB-DH than GHB,[2],about 200 fold
same,weaker affinity for GHB-DH than GHB,[2]; listed as ethanol,approximately 200 fold
same,color produced,[7]; all concentrations of ethanol tested,little or no color
